Patent US9930888B2, “Composition” (Conopco, Inc., priority 2013, dated 2018)

How the values were obtained:
S. epidermidis = experiment: bacterial respiration of S. epidermidis suspension in microplate; format: cell-based; conditions: lactam pre-blended with hydrotrope, added to remainder of composition, diluted to 11.5 ppm and 0.575 ppm; 20 hours
Protocol: Test samples were diluted in sterile water to achieve a 11.5 ppm level of lactam. Dilute solution (80 μl) was added to a S. epidermidis suspension (20 μl) of bacteria at a concentration of 8 logs in a microplate. Growth media (100 μl tryptone soya broth) was added to each well of the microplate and incubated for 20 hours. Bacterial respiration was measured every 30 minutes and the results were: • A—lactam+hydrotrope only (respiration of surviving bacteria detected ˜4-5 h) • B—lactam added directly to base formulation (which contains MPG)—no pre-mixing prior to addition (respiration of surviving bacteria detected 4-5 hrs) • C—lactam pre-mixed with hydrotrope and then added to base formulation (respiration of surviving bacteria not detected—20 hrs is max detection time) • D—hydrotrope added to base formulation (respiration of surviving bacteria detected 3-4 hrs). The example below is from data obtained when pre-blending lactams with hydrotrope before adding to the remainder of the composition, and diluting to 11.5 ppm and 0.575 ppm in sterile water in order to assess efficacy against S. epidermidis suspension Dilute solution (80 μl) was added to a S. epidermidis suspension (20 μl) of bacteria at a concentration of 8 logs in a microplate. Growth media (100 μl tryptone soya broth) was added to each well of the microplate and incubated for 20 hours. Bacterial respiration was measured every 30 minutes. Data of the test samples were then compared to un-treated cell suspensions (sterile water added instead of test samples) and percent inhibition calculated.

[1] = solubility of lactam in candidate solubilisers (magnetic stirring or ultrasonic mixing); format: physicochemical
Protocol: An Ultrasonic mixer was used to obtain determine solubility.
We used a Hielscher UP200S (200W) Sonic Tip on batches of 5-20 ml. We sonicated for up to 60 minutes.
We then tested the candidate solubilisers with 1% lactam, both with 72 hours high speed magnetic stirring (with held temperature of ˜500 in the cases of solubilisers that solidify alone at room temperature) and also 20 minutes Sonication.
In each case we incorporated the lactam powder into the solubilisers (at the levels indicated in the below table) using high speed stirring to avoid lumps from forming. Once the powder was added, the described mixing method (either continued high speed stirring or Ultrasonic mixing) commenced. In the cases of Sorbitan Oleate and Polysorbate-60, we applied initial heating to approx. 500 to ensure the solubilisers were fully liquid prior to commencing addition of the lactam. Both of these materials are non-flowing at room temperature. PEG-40 Hydrogenated Castor required initial heating to ˜350 to ensure complete fluidity prior to commencing.

[2] = appearance of lactam solution when added to base formulation at 5%; format: physicochemical; conditions: 3% lactam in PEG-60 Hydrogenated Castor Oil; Magnetic stirring 1 hour
From the text: We ensured the lactam solutions were fully uniform through constant mechanical agitation (to avoid the settling of any unsolubilised lactam material) and added them to base using slow speed stirring to incorporate them without generating aeration.

[3] = solubility of lactam in candidate solubilisers (magnetic stirring or ultrasonic mixing); format: physicochemical; conditions: 1% lactam in PEG-40 Hydrogenated Castor Oil; Magnetic stirring 24 hours

In the case of `C=C1NC(=O)C=C1c1ccccc1` [5-methylene-4-phenyl-1H-pyrrol-2(5H)-one], the “Result (inhibition of bacterial respiration versus water control)” value (S. epidermidis) is reported as 82.5%, the “Observations of solvent solution: % of lactam solubilised” value (“Observations … % of lactam solubilised” for short) ([1]; 1% lactam in 3-Methoxy-3-methyl-1-butanol, 20 minutes sonication, temp reached 60-70 C., forced) is reported as ~5% of lactam and the “Observations of solvent solution” value ([1]; 1% lactam in 3-Methoxy-3-methyl-1-butanol, Magnetic stirring 72 hours) is reported as “No solubility”. For the same molecule, the “Observations of solvent solution” value ([1]; 1% lactam in Diglycerin, 20 minutes sonication, temp reached 60-70 C.) was “No solubility”, the “Observations of solvent solution” value ([1]; 1% lactam in Diglycerin, Magnetic stirring 72 hours) was “No solubility” and the “Observations … % of lactam solubilised” value ([1]; 1% lactam in Isopentyldiol, 20 minutes sonication, temp reached 60-70 C., forced) was ~5% of lactam. For the same molecule, the “Observations of solvent solution” value ([1]; 1% lactam in Isopentyldiol, Magnetic stirring 72 hours) was “No solubility”, the “Observations … % of lactam solubilised” value ([1]; 1% lactam in PEG-40 Hydrogenated Castor Oil, Magnetic stirring 72 hours) was ~90% of lactam and the “Observations … % of lactam solubilised” value ([1]; 1% lactam in PEG-40 Hydrogenated Castor Oil, Magnetic stirring 72 hours with temp. at 50 C.) was ~99% of lactam. For the same molecule, the “Observations … % of lactam solubilised” value ([1]; 1% lactam in PEG-60 Hydrogenated Castor Oil, 20 minutes sonication, temp reached 60-70 C.) was ~25% of lactam, the “Observations … % of lactam solubilised” value ([1]; 1% lactam in PEG-60 Hydrogenated Castor Oil, Magnetic stirring 72 hours at 50 C.) was ~25% of lactam and the “Observations … % of lactam solubilised” value ([1]; 1% lactam in Pentylene Glycol, 20 minutes sonication, temp reached 60-70 C.) was ~5% of lactam. The “Observations … % of lactam solubilised” value ([1]; 1% lactam in Pentylene Glycol, Magnetic stirring 72 hours) was ~5% of lactam, the “Observations … % of lactam solubilised” value ([1]; 1% lactam in Polysorbate 20, Magnetic stirring 24 hours) was ~75% of lactam and the “Observations … % of lactam solubilised” value ([1]; 1% lactam in Polysorbate 20, Magnetic stirring 72 hours) was ~95% of lactam. For the same molecule, the “Observations … % of lactam solubilised” value ([1]; 1% lactam in Polysorbate 60, 20 minutes sonication, temp reached 60-70 C.) was ~25% of lactam, the “Observations … % of lactam solubilised” value ([1]; 1% lactam in Polysorbate 60, Magnetic stirring 72 hours at 50 C.) was ~25% of lactam and the “Observations … % of lactam solubilised” value ([1]; 1% lactam in Polysorbate 80, 20 minutes sonication, temp reached 60-70 C.) was ~25% of lactam. For the same molecule, the “Observations … % of lactam solubilised” value ([1]; 1% lactam in Polysorbate 80, Magnetic stirring 72 hours at 50 C.) was ~25% of lactam, the “Observations … % of lactam solubilised” value ([1]; 1% lactam in Sisterna SP30-C, 20 minutes sonication, temp reached 60-70 C.) was ~25% of lactam and the “Observations … % of lactam solubilised” value ([1]; 1% lactam in Sisterna SP30-C, Magnetic stirring 72 hours at 50 C.) was ~25% of lactam. For the same molecule, the “Observations … % of lactam solubilised” value ([1]; 1% lactam in Sisterna SP50-C, 20 minutes sonication, temp reached 60-70 C.) was ~25% of lactam, the “Observations … % of lactam solubilised” value ([1]; 1% lactam in Sisterna SP50-C, Magnetic stirring 72 hours at 50 C.) was ~25% of lactam and the “Observations … % of lactam solubilised” value ([1]; 1% lactam in Sisterna SP70-C, 20 minutes sonication, temp reached 60-70 C.) was ~25% of lactam. The “Observations … % of lactam solubilised” value ([1]; 1% lactam in Sisterna SP70-C, Magnetic stirring 72 hours at 50 C.) was ~25% of lactam, the “Observations … % of lactam solubilised” value ([1]; 1.5% lactam in Polysorbate 20, 20 minutes sonication, temp reached 60-70 C.) was ~75% of lactam and the “Observations … % of lactam solubilised” value ([1]; 1.5% lactam in Polysorbate 20, 60 minutes sonication, temp reached 80-90 C., dark brown colour) was ~95% of lactam. The “Observations … % of lactam solubilised” value ([1]; 1.5% lactam in Polysorbate 20, Magnetic stirring 48 hours) was ~50% of lactam, the “Observations … % of lactam solubilised” value ([1]; 1.5 lactam in Polysorbate 20, Magnetic stirring, heated to 50 C. 72 hours) was ~75% of lactam and the “Observations of solvent solution: % of lactam appeared to solubilise” value ([1]; 2.1% lactam in PEG-40 Hydrogenated Castor Oil, 20 minutes sonication, temp reached 80 C., small amount of 'burnt' spots visible) was 90% of lactam. The “Observations of solvent solution” value ([1]; 2.1% lactam in PEG-40 Hydrogenated Castor Oil, 60 minutes sonication, temp reached 110 C., very dark colour) was “lactam solubilised”, the “Observations … % of lactam solubilised” value ([1]; 2.1% lactam in PEG-40 Hydrogenated Castor Oil, Magnetic stirring 24 hours) was ~50% of lactam and the “Observations … % of lactam solubilised” value ([1]; 2.1% lactam in PEG-40 Hydrogenated Castor Oil, Magnetic stirring 48 hours) was ~75% of lactam. The “Observations … % of lactam solubilised” value ([1]; 2.1% lactam in PEG-40 Hydrogenated Castor Oil, Magnetic stirring, heated to 50 C. 8 hours) was ~50% of lactam, the “Observations … % of lactam solubilised” value ([1]; 2.1% lactam in Polysorbate 20, 20 minutes sonication, temp reached 60-70 C., dark colour formed) was ~90% of lactam and the “Observations … % of lactam solubilised” value ([1]; 2.1% lactam in Polysorbate 20, 60 minutes sonication, temp reached 80 C.) was 90% of lactam. The “Observations … % of lactam solubilised” value ([1]; 2.1% lactam in Polysorbate 20, 60 minutes sonication, temp reached 90-100 C.) was 90% of lactam, the “Observations … % of lactam solubilised” value ([1]; 2.1% lactam in Polysorbate 20, Magnetic stirring 24 hours) was ~50% of lactam and the “Observations … % of lactam solubilised” value ([1]; 2.1% lactam in Polysorbate 20, Magnetic stirring 48 hours) was ~75% of lactam. For the same molecule, the “Observations … % of lactam solubilised” value ([1]; 2.1% lactam in Polysorbate 20, Magnetic stirring, heated to 50 C. 8 hours) was ~50% of lactam, the “Observations … % of lactam solubilised” value ([1]; 2.1% lactam in Polysorbate 20, Magnetic stirring, heated to 50 C. 72 hours) was ~75% of lactam and the “Observations of solvent solution” value ([1]; 3% lactam in Diglycerin, Magnetic stirring 1 hour) was “No solubility”. The “Observations … % of lactam solubilised” value ([1]; 3% lactam in Dipropylene Glycol, Magnetic stirring 1 hour) was ~5% of lactam, the “Observations of solvent solution” value ([1]; 3% lactam in Hexylene Glycol, Magnetic stirring 1 hour) was “No solubility” and the “Observations of solvent solution” value ([1]; 3% lactam in Isopentyldiol, Magnetic stirring 1 hour) was “No solubility”. The “Observations of solvent solution” value ([1]; 3% lactam in MMB, Magnetic stirring 1 hour) was “No solubility”, the “Observations … % of lactam solubilised” value ([1]; 3% lactam in PEG-40 Hydrogenated Castor Oil, 20 minutes sonication, temp reached 60-70 C.) was ~75% of lactam and the “Observations … % of lactam solubilised” value ([1]; 3% lactam in PEG-40 Hydrogenated Castor Oil, 60 minutes sonication, temp reached 80 C.) was ~75% of lactam. The “Observations … % of lactam solubilised” value ([1]; 3% lactam in PEG-40 Hydrogenated Castor Oil, Magnetic stirring 1 hour) was ~25% of lactam, the “Observations … % of lactam solubilised” value ([1]; 3% lactam in PEG-60 Hydrogenated Castor Oil, Magnetic stirring 1 hour) was ~10% of lactam and the “Observations of solvent solution” value ([1]; 3% lactam in Pentylene Glycol, Magnetic stirring 1 hour) was “No solubility”. For the same molecule, the “Observations … % of lactam solubilised” value ([1]; 3% lactam in Polysorbate 20, 20 minutes sonication, temp reached 60-70 C.) was ~50% of lactam, the “Observations … % of lactam solubilised” value ([1]; 3% lactam in Polysorbate 20, 60 minutes sonication, temp reached 90 C.) was ~60-70% of lactam and the “Observations … % of lactam solubilised” value ([1]; 3% lactam in Polysorbate 20, Magnetic stirring 1 hour) was ~25% of lactam. For the same molecule, the “Observations … % of lactam solubilised” value ([1]; 3% lactam in Polysorbate 60, Magnetic stirring 1 hour, 50 C.) was ~10% of lactam, the “Observations … % of lactam solubilised” value ([1]; 3% lactam in Polysorbate 80, Magnetic stirring 1 hour) was ~10% of lactam and the “Observations … % of lactam solubilised” value ([1]; 3% lactam in Sisterna SP30-C, Magnetic stirring 1 hour) was ~5% of lactam. For the same molecule, the “Observations … % of lactam solubilised” value ([1]; 3% lactam in Sisterna SP50-C, Magnetic stirring 1 hour) was ~5% of lactam, the “Observations … % of lactam solubilised” value ([1]; 3% lactam in Sisterna SP70-C, Magnetic stirring 1 hour) was ~5% of lactam and the “Observations … % of lactam solubilised” value ([1]; 3% lactam in Sorbitan Oleate, Magnetic stirring 1 hour, 50 C.) was ~5% of lactam. The “Observations … % of lactam solubilised” value ([1]; 4.2% lactam in PEG-40 Hydrogenated Castor Oil, 20 minutes sonication, temp reached 60-70 C., very dark colour) was 50% of lactam, the “Observations … % of lactam solubilised” value ([1]; 4.2% lactam in PEG-40 Hydrogenated Castor Oil, 60 minutes sonication, temp reached 80 C., very dark colour) was 75% of lactam and the “Observations … % of lactam solubilised” value ([1]; 4.2% lactam in PEG-40 Hydrogenated Castor Oil, 60 minutes sonication, temp reached 110 C., very dark colour) was 75% of lactam. For the same molecule, the “Observations … % of lactam solubilised” value ([1]; 4.2% lactam in PEG-40 Hydrogenated Castor Oil, Magnetic stirring 24 hours) was ~25% of lactam, the “Observations … % of lactam solubilised” value ([1]; 4.2% lactam in PEG-40 Hydrogenated Castor Oil, Magnetic stirring 48 hours) was ~25% of lactam and the “Observations … % of lactam solubilised” value ([1]; 4.2% lactam in PEG-40 Hydrogenated Castor Oil, initially stirred for 2, 4 and 6 hours) was no more than 25% solubilised). For the same molecule, the “Observations … % of lactam solubilised” value ([1]; 4.2% lactam in Polysorbate 20, 20 minutes sonication, temp reached 60-70 C.) was ~50% of lactam, the “Observations … % of lactam solubilised” value ([1]; 4.2% lactam in Polysorbate 20, 60 minutes sonication, temp reached 90 C.) was ~60-70% of lactam and the “Observations … % of lactam solubilised” value ([1]; 4.2% lactam in Polysorbate 20, Magnetic stirring 24 hours) was ~25% of lactam. The “Observations … % of lactam solubilised” value ([1]; 4.2% lactam in Polysorbate 20, Magnetic stirring 48 hours) was ~25% of lactam, the “Observations … % of lactam solubilised” value ([1]; 4.2% lactam in Polysorbate 20, initially stirred for 2, 4 and 6 hours) was no more than 25% solubilised) and the “Observations … % of lactam solubilised” value ([1]; PEG-40 Hydrogenated Castor Oil table: 3% lactam, Magnetic stirring 1 hour) was ~25% of lactam. For the same molecule, the “Observations … % of lactam solubilised” value ([1]; Polysorbate 20 table: 3% lactam, Magnetic stirring 1 hour) was ~25% of lactam, the “colour change of lactam solution” value ([1]; when samples exceeded 50 C) was “dark brown colour” and the “colour change of lactam solution” value ([1]; when the temperature reached 65 C, Polysorbate-20 and PEG-40 Hydrogenated Castor Oil variants only) was “virtually opaque”. The “Observations when added to base @ 5%” value [2] was “Cloudy in solution” and the “Observations … % of lactam solubilised” value [3] was ~75% of lactam.
